Laboratory results published in publication PMC6104695 (Virulence, 2017).
≈ marks a conversion by molar mass, not a printed value. Where “and” joins values, the source holds several entries; their conditions need not be identical. Equal values may be shown once. Ends that are not written are not given here. Peptide text beside a SMILES is read from it.

Assays:
[1] = tested on: B. anthracis Sterne vegetative bacteria; conditions: 24 h
[2] = tested on: B. anthracis Sterne spores; parameters: species or system Galleria mellonella; conditions: in vivo
[3] = tested on: B. anthracis Sterne spores; assay: microbe, parasite or virus in culture; conditions: Bacillus anthracis, 3 h, pH 7.4, read-out: Sporicidal EC50 (95% Confidence Interval)
[4] = tested on: B. anthracis; conditions: mouse, in vivo, sc; cited from earlier work

Row | Compound | MIC [1] [µM] | other results
1 | GLLRKGGEKIGEKLKKIGQKIKNFFQKLVPQPEQ [mCRAMP] | 16.5 | 
2 | GLKLRFEFSKIKGEFLKTPEVRFRDIKLKDNRISVQR [Scrambled LL-37] | >150 | 
3 | O=C(O)c1cn(C2CC2)c2cc(N3CCNCC3)c(F)cc2c1=O [Ciprofloxacin] |  | Rescue of infected waxworms by ciprofloxacin [2]: 100%; Survival (%) of B. anthracis infected G. mellonella larvae [2]: 100%; EC50 [3]: 70.8 µg/mL and > 100 µM
4 | CC[C@H](C)[C@H](NC(=O)[C@H](CCCCN)NC(=O)[C@H](CCC(=O)O)NC(=O)[C@H](CCCCN)NC(=O)[C@H](CO)NC(=O)[C@H](CCCCN)NC(=O)[C@H](CCCNC(=N)N)NC(=O)[C@H](Cc1ccccc1)NC(=O)[C@H](Cc1ccccc1)NC(=O)[C@H](CC(=O)O)NC(=O)CNC(=O)[C@H](CC(C)C)NC(=O)[C@@H](N)CC(C)C)C(=O)NCC(=O)N[C@@H](CCCCN)C(=O)N[C@@H](CCC(=O)O)C(=O)N[C@@H](Cc1ccccc1)C(=O)N[C@@H](CCCCN)C(=O)N[C@@H](CCCNC(=N)N)C(=O)N[C@H](C(=O)N[C@H](C(=O)N[C@@H](CCC(N)=O)C(=O)N[C@@H](CCCNC(=N)N)C(=O)N[C@H](C(=O)N[C@@H](CCCCN)C(=O)N[C@@H](CC(=O)O)C(=O)N[C@@H](Cc1ccccc1)C(=O)N[C@@H](CC(C)C)C(=O)N[C@@H](CCCNC(=N)N)C(=O)N[C@@H](CC(N)=O)C(=O)N[C@@H](CC(C)C)C(=O)N[C@H](C(=O)N1CCC[C@H]1C(=O)N[C@@H](CCCNC(=N)N)C(=O)N[C@H](C(=O)N[C@@H](CCC(=O)O)C(=O)N[C@@H](CO)C(=O)O)[C@@H](C)O)C(C)C)[C@@H](C)CC)C(C)C)[C@@H](C)CC [LL-37] | 7.12 (≈ 32 µg/mL) | 
5 | CC(C)C[C@H](NC(=O)[C@H](CCCNC(=N)N)NC(=O)CNC(=O)CNC(=O)[C@@H](N)CCCNC(=N)N)C(=O)N[C@@H](CS)C(=O)N[C@@H](Cc1ccc(O)cc1)C(=O)N[C@@H](CS)C(=O)N[C@@H](CCCNC(=N)N)C(=O)N[C@@H](CCCNC(=N)N)C(=O)N[C@@H](CCCNC(=N)N)C(=O)N[C@@H](Cc1ccccc1)C(=O)N[C@@H](CS)C(=O)N[C@H](C(=O)N[C@@H](CS)C(=O)N[C@H](C(=O)NCC(=O)N[C@@H](CCCNC(=N)N)C(=O)O)C(C)C)C(C)C [PG-1] (H-RGGRLCYCRRRFCVCVGR-OH; N-terminus and C-terminus assumed) | 7.41 (≈ 16 µg/mL) | Survival of infected mice [4]: 80%
